From patent US20260327204A1, “DEGRADERS OF CYCLIN-DEPENDENT KINASE 12/13, COMPOSITIONS, AND USES THEREOF” (ZHEJIANG UNIVERSITY, priority 2023, published 2026)

How the values were obtained:
CDK13 = CDK13 (Homo sapiens, UniProt Q14004); experiment: Western blot degradation of CDK13 (Example 3); assay type: cell-based; set-up: degradation of CDK12/13 protein in leukemia cells KASUMI-1, MV4-11, and Jurkat; endogenous in cells; settings: DC50 classes; cell line not given; read-out: CDK13 degradation Activity
CDK12 = CDK12 (Homo sapiens, UniProt Q9NYV4); experiment: Western blot degradation of CDK12 (Example 3); assay type: cell-based; set-up: degradation of CDK12/13 protein in leukemia cells KASUMI-1, MV4-11, and Jurkat; endogenous in cells; settings: DC50 classes; cell line not given; read-out: CDK12 degradation Activity
Chain of CDK12 (Q9NYV4 whole entry): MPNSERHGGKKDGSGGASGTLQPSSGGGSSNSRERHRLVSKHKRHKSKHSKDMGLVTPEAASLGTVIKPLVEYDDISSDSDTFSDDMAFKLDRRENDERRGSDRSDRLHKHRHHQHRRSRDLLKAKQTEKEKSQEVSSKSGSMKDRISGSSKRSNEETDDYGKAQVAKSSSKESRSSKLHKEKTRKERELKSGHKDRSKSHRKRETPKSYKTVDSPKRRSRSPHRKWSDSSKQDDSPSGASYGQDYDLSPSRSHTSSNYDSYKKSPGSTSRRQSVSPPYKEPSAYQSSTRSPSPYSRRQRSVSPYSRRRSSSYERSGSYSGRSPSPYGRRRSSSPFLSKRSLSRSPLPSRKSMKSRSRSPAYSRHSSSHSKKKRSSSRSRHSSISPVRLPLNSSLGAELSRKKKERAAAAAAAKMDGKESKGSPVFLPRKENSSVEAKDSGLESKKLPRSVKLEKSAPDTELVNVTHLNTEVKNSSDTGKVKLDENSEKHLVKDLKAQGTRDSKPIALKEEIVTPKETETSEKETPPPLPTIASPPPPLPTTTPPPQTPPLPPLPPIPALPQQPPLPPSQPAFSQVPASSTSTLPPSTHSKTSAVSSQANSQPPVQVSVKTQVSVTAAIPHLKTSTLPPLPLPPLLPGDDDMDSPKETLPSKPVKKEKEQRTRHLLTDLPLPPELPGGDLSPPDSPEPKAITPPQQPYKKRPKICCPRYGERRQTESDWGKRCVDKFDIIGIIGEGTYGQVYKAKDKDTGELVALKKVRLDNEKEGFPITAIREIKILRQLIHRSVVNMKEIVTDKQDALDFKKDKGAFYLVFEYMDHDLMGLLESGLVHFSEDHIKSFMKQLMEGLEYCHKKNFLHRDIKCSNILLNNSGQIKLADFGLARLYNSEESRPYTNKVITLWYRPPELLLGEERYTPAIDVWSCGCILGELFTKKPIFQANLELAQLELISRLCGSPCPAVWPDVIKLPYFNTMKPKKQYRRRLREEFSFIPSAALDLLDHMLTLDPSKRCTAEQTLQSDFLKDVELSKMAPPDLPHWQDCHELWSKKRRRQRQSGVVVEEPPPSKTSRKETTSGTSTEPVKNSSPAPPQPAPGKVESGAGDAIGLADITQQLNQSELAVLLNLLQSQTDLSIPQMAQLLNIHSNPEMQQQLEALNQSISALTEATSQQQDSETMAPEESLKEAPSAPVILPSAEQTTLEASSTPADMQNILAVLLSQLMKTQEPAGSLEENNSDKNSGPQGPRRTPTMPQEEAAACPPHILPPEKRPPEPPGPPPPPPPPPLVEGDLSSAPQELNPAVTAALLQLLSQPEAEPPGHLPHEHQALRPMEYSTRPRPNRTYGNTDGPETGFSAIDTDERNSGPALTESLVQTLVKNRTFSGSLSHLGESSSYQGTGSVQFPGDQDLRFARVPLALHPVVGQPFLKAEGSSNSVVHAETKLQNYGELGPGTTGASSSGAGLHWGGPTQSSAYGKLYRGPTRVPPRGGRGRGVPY
Chain of CDK12 (O75909 whole entry partner): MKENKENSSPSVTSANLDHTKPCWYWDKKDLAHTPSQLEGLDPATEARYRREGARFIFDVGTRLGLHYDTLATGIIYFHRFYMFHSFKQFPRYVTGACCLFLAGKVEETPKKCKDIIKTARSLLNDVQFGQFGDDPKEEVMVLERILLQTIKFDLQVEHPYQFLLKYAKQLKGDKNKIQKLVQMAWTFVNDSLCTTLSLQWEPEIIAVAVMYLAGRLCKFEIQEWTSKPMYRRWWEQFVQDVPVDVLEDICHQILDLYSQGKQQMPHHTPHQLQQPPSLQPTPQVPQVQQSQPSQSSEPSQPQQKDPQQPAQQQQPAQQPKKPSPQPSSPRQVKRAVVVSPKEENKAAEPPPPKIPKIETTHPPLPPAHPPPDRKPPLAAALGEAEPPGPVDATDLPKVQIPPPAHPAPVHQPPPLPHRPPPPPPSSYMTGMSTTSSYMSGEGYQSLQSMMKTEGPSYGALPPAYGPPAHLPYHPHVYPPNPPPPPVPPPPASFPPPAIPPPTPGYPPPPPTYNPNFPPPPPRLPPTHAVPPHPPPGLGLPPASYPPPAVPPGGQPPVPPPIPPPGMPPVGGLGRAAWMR

Chain of CDK13 (Q14004 whole entry): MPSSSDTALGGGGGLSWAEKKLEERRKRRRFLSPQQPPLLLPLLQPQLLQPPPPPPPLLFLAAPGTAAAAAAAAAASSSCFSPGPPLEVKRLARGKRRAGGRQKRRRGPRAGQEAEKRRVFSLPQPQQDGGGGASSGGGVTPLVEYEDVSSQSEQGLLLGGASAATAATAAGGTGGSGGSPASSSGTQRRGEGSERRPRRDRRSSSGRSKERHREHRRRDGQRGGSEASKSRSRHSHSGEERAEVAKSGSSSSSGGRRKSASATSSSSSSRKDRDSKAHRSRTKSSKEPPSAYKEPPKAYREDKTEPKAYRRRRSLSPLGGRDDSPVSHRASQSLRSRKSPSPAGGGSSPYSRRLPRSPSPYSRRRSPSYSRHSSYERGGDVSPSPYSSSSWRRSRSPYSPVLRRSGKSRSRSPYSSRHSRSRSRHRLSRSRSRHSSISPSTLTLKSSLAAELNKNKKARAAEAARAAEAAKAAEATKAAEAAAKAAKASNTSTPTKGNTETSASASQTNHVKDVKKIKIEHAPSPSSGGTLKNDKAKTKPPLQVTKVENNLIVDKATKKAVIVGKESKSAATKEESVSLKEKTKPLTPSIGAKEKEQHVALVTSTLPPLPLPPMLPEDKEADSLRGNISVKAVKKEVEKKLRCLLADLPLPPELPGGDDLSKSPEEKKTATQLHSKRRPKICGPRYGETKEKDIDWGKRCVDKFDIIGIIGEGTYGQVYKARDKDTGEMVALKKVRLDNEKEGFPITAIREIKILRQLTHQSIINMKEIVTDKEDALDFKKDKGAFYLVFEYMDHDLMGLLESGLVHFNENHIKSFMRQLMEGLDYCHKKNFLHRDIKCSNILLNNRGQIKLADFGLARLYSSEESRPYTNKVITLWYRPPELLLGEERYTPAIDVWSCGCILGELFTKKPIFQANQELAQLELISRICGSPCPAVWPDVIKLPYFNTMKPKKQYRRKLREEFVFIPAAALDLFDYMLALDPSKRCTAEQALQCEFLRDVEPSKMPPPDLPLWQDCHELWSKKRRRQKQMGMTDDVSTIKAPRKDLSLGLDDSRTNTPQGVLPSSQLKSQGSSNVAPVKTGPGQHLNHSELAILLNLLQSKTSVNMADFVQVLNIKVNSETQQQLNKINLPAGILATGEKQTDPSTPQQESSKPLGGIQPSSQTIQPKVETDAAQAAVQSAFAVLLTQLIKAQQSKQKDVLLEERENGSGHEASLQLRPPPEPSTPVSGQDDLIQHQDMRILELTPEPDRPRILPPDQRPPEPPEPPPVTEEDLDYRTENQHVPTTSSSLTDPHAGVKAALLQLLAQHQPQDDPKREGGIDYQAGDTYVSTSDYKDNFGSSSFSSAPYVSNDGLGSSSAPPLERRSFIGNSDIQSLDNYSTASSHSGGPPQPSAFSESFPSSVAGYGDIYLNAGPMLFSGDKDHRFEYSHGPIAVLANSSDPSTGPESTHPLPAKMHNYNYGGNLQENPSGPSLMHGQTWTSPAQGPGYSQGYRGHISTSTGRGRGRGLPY
Chain of CDK13 (O75909 whole entry partner): as the sequence (O75909 whole entry partner) above

Structure (SMILES)	DC50 (CDK13)	DC50 (CDK12)
CC(=O)N(c1ccc(-c2cnn(CC3CN(c4ccc5c(c4)C(=O)N(C4CCC(=O)NC4=O)C5=O)C3)c2)cc1)[C@H]1CC[C@H](Nc2ncc3ccccc3n2)CC1 (stereo partly drawn) [Formula 115, N-(4-(1-((1-(2-(2,6-dioxopiperidin-3-yl)-1,3-dioxoisoindolin-5-yl)azetidin-3-yl)methyl)-1H-pyrazol-4-yl)phenyl)-N-((1R,4R)-4-(quinazolin-2-ylamino)cyclohexyl)acetamide]	1 to 3 µM	1 to 3 µM
CC(=O)N(c1ccc(-c2cnn(C3CCN(c4ccc5c(c4)C(=O)N(C4CCC(=O)NC4=O)C5=O)C3)c2)cc1)[C@H]1CC[C@H](Nc2ncc3ccccc3n2)CC1 (stereo partly drawn) [Formula 116, N-(4-(1-(1-(2-(2,6-dioxopiperidin-3-yl)-1,3-dioxoisoindolin-5-yl)pyrrolidin-3-yl)-1H-pyrazol-4-yl)phenyl)-N-((1R,4R)-4-(quinazolin-2-ylamino)cyclohexyl)acetamide]	3 to 10 µM	3 to 10 µM
CC(=O)N(c1ccc(-c2cnn(C3CCN(c4ccc5c(c4)C(=O)N(C4CCC(=O)NC4=O)C5=O)CC3)c2)cc1)[C@H]1CC[C@H](Nc2ncc3ccccc3n2)CC1 (stereo partly drawn) [Formula 117, N-(4-(1-(1-(2-(2,6-dioxopiperidin-3-yl)-1,3-dioxoisoindolin-5-yl)piperidin-4-yl)-1H-pyrazol-4-yl)phenyl)-N-((1R,4R)-4-(quinazolin-2-ylamino)cyclohexyl)acetamide]	0.5 to 1 µM	1 to 3 µM
CC(=O)N(c1ccc(N2CCN(C(=O)/C=C/c3ccc4c(c3)C(=O)N(C3CCC(=O)NC3=O)C4=O)CC2)cc1)[C@H]1CC[C@H](Nc2ncc3ccccc3n2)CC1 (stereo partly drawn) [Formula 118, N-(4-(4-((E)-3-(2-(2,6-dioxopiperidin-3-yl)-1,3-dioxoisoindolin-5-yl)acryloyl)piperazin-1-yl)phenyl)-N-((1R,4R)-4-(quinazolin-2-ylamino)cyclohexyl)acetamide]	0.5 to 1 µM	1 to 3 µM
CC(=O)N(c1ccc(N2CCC3(CC2)CCN(c2ccc4c(c2)C(=O)N(C2CCC(=O)NC2=O)C4=O)CC3)cc1)[C@H]1CC[C@H](Nc2ncc3ccccc3n2)CC1 (stereo partly drawn) [Formula 120, N-(4-(9-(2-(2,6-dioxopiperidin-3-yl)-1,3-dioxoisoindolin-5-yl)-3,9-diazaspiro[5.5]undecan-3-yl)phenyl)-N-((1R,4R)-4-(quinazolin-2-ylamino)cyclohexyl)acetamide]	3 to 10 µM	3 to 10 µM
CC(=O)N(c1ccc(N2CCN(C3CCN(c4ccc5c(c4)C(=O)N(C4CCC(=O)NC4=O)C5=O)CC3)CC2)cc1)[C@H]1CC[C@H](Nc2ncc3ccccc3n2)CC1 (stereo partly drawn) [Formula 123, N-(4-(4-(1-(2-(2,6-dioxopiperidin-3-yl)-1,3-dioxoisoindolin-5-yl)piperidin-4-yl)piperazin-1-yl)phenyl)-N-((1R,4R)-4-(quinazolin-2-ylamino)cyclohexyl)acetamide]	0.5 to 1 µM	0.1 to 0.5 µM
CC(=O)N(c1ccc(N2CCN(C3CN(c4ccc5c(c4)C(=O)N(C4CCC(=O)NC4=O)C5=O)C3)CC2)cc1)[C@H]1CC[C@H](Nc2ncc3ccccc3n2)CC1 (stereo partly drawn) [Formula 124, N-(4-(4-(1-(2-(2,6-dioxopiperidin-3-yl)-1,3-dioxoisoindolin-5-yl)azetidin-3-yl)piperazin-1-yl)phenyl)-N-((1R,4R)-4-(quinazolin-2-ylamino)cyclohexyl)acetamide]	1 to 3 µM	1 to 3 µM
CC(=O)N(c1ccc(N2CCN(C3CCN(c4ccc5c(c4)C(=O)N(C4CCC(=O)NC4=O)C5=O)C3)CC2)cc1)[C@H]1CC[C@H](Nc2ncc3ccccc3n2)CC1 (stereo partly drawn) [Formula 125, N-(4-(4-(1-(2-(2,6-dioxopiperidin-3-yl)-1,3-dioxoisoindolin-5-yl)pyrrolidin-3-yl)piperazin-1-yl)phenyl)-N-((1R,4R)-4-(quinazolin-2-ylamino)cyclohexyl)acetamide]	3 to 10 µM	1 to 3 µM
CC(=O)N(c1ccc(N2CCN(CC3CCN(c4ccc5c(c4)C(=O)N(C4CCC(=O)NC4=O)C5=O)C3)CC2)cc1)[C@H]1CC[C@H](Nc2ncc3ccccc3n2)CC1 (stereo partly drawn) [Formula 126, N-(4-(4-((1-(2-(2,6-dioxopiperidin-3-yl)-1,3-dioxoisoindolin-5-yl)pyrrolidin-3-yl)methyl)piperazin-1-yl)phenyl)-N-((1R,4R)-4-(quinazolin-2-ylamino)cyclohexyl)acetamide]	3 to 10 µM	1 to 3 µM
CC(=O)N(c1ccc(N2CCN(CC3CN(c4ccc5c(c4)C(=O)N(C4CCC(=O)NC4=O)C5=O)C3)CC2)cc1)[C@H]1CC[C@H](Nc2ncc3ccccc3n2)CC1 (stereo partly drawn) [Formula 127, N-(4-(4-((1-(2-(2,6-dioxopiperidin-3-yl)-1,3-dioxoisoindolin-5-yl)azetidin-3-yl)methyl)piperazin-1-yl)phenyl)-N-((1R,4R)-4-(quinazolin-2-ylamino)cyclohexyl)acetamide]	0.5 to 1 µM	0.5 to 1 µM
CC(=O)N(c1ccc(-c2cncc(C(=O)N[C@H]3CCC(=O)NC3=O)c2)cc1)[C@H]1CC[C@H](Nc2ncc3ccccc3n2)CC1 [Formula 128, N—((S)-2,6-dioxopiperidin-3-yl)-5-(4-(N-((1R,4S)-4-(quinazolin-2-ylamino)cyclohexyl)acetamido)phenyl)nicotinamide]	3 to 10 µM	3 to 10 µM
CC(=O)N(c1ccc(-c2ccc(C(=O)N[C@H]3CCC(=O)NC3=O)nc2)cc1)[C@H]1CC[C@H](Nc2ncc3ccccc3n2)CC1 [Formula 129, N—((S)-2,6-dioxopiperidin-3-yl)-5-(4-(N-((1R,4S)-4-(quinazolin-2-ylamino)cyclohexyl)acetamido)phenyl)pyridinecarboxamide]	3 to 10 µM	3 to 10 µM
CC(=O)N(c1ccc(-c2cnc(N3CCN(c4cc(NC5CCC(=O)NC5=O)ccc4F)CC3)nc2)cc1)[C@H]1CC[C@H](Nc2ncc3ccccc3n2)CC1 (stereo partly drawn) [Formula 130, N-(4-(2-(4-(5-((2,6-dioxopiperidin-3-yl)amino)-2-fluorophenyl)piperazin-1-yl)pyrimidin-5-yl)phenyl)-N-((1R,4R)-4-(quinazolin-2-ylamino)cyclohexyl)acetamide]	1 to 3 µM	1 to 3 µM
CC(=O)N(c1ccc(-c2ccc(OCCOCC(=O)N[C@H](C(=O)N3C[C@H](O)C[C@H]3C(=O)N[C@@H](C)c3ccc(-c4scnc4C)cc3)C(C)(C)C)nc2)cc1)[C@H]1CC[C@H](Nc2ncc3ccccc3n2)CC1 [Formula 131, (2S,4R)-1-((S)-3,3-dimethyl-2-(2-(2-((5-(4-(N-((1R,4R)-4-(quinazolin-2-ylamino)cyclohexyl)acetamido)phenyl)pyridin-2-yl)oxy)ethoxy)acetamido)butanoyl)-4-hydroxy-N—((S)-1-(4-(4-methylthiazol-5-yl)phenyl)ethyl)pyrrolidine-2-carboxamide]	0.5 to 1 µM	0.5 to 1 µM
CC(=O)N(c1ccc(-c2cnc(OCCOCC(=O)N[C@H](C(=O)N3C[C@H](O)C[C@H]3C(=O)N[C@@H](C)c3ccc(-c4scnc4C)cc3)C(C)(C)C)nc2)cc1)[C@H]1CC[C@H](Nc2ncc3ccccc3n2)CC1 [Formula 132, (2S,4R)-1-((S)-3,3-dimethyl-2-(2-(2-((5-(4-(N-((1R,4R)-4-(quinazolin-2-ylamino)cyclohexyl)acetamido)phenyl)pyrimidin-2-yl)oxy)ethoxy)acetamido)butanoyl)-4-hydroxy-N—((S)-1-(4-(4-methylthiazol-5-yl)phenyl)ethyl)pyrrolidine-2-carboxamide]	0.5 to 1 µM	0.5 to 1 µM
CC(=O)N(c1ccc(-c2ccc(OCC3CCN(CC(=O)N[C@H](C(=O)N4C[C@H](O)C[C@H]4C(=O)N[C@@H](C)c4ccc(-c5scnc5C)cc4)C(C)(C)C)CC3)nc2)cc1)[C@H]1CC[C@H](Nc2ncc3ccccc3n2)CC1 [Formula 133, (2S,4R)-1-((S)-3,3-dimethyl-2-(2-(4-(((5-(4-(N-((1R,4R)-4-(quinazolin-2-ylamino)cyclohexyl)acetamido)phenyl)pyridin-2-yl)oxy)methyl)piperidin-1-yl)acetamido)butanoyl)-4-hydroxy-N—((S)-1-(4-(4-methylthiazol-5-yl)phenyl)ethyl)pyrrolidine-2-carboxamide]	0.1 to 0.5 µM	0.5 to 1 µM
CC(=O)N(c1ccc(-c2cnc(OCC3CCN(CC(=O)N[C@H](C(=O)N4C[C@H](O)C[C@H]4C(=O)N[C@@H](C)c4ccc(-c5scnc5C)cc4)C(C)(C)C)CC3)nc2)cc1)[C@H]1CC[C@H](Nc2ncc3ccccc3n2)CC1 [Formula 134, (2S,4R)-1-((S)-3,3-dimethyl-2-(2-(4-(((5-(4-(N-((1R,4R)-4-(quinazolin-2-ylamino)cyclohexyl)acetamido)phenyl)pyrimidin-2-yl)oxy)methyl)piperidin-1-yl)acetamido)butanoyl)-4-hydroxy-N—((S)-1-(4-(4-methylthiazol-5-yl)phenyl)ethyl)pyrrolidine-2-carboxamide]	0.5 to 1 µM	0.5 to 1 µM
CC(=O)N(c1ccc(-c2ccc(OC3CCN(CC(=O)N[C@H](C(=O)N4C[C@H](O)C[C@H]4C(=O)N[C@@H](C)c4ccc(-c5scnc5C)cc4)C(C)(C)C)CC3)nc2)cc1)[C@H]1CC[C@H](Nc2ncc3ccccc3n2)CC1 [Formula 135, (2S,4R)-1-((S)-3,3-dimethyl-2-(2-(4-((5-(4-(N-((1R,4R)-4-(quinazolin-2-ylamino)cyclohexyl)acetamido)phenyl)pyridin-2-yl)oxy)piperidin-1-yl)acetamido)butanoyl)-4-hydroxy-N—((S)-1-(4-(4-methylthiazol-5-yl)phenyl)ethyl)pyrrolidine-2-carboxamide]	1 to 3 µM	0.5 to 1 µM
